In brackets after ≈: the same amount, converted by molar mass.
Legend:
[1] = Assessment of solubility (McIlvaine buffers, 24 h shake, UPLC-UV); type: physicochemical; settings: kinetic from dmso stock
Description: Solubility is measured by the following method.
100 uL, 10 mM DMSO stock solution of each compound is prepared in a 96 well plate format. The experiment is done in single determination at 3 pH values (2.2, 4.5 and 6.8). For each pH and one reference, 40 uL of each compound is needed.
McIlvaine pH 2.2: To 2.076 g citric acid monohydrate and 0.043 g Na2HPO4×2H2O add 100 ml deionized water
McIlvaine pH 4.5: To 1.166 g citric acid monohydrate and 1.585 g Na2HPO4×2H2O add 100 ml deionized water
McIlvaine pH 6.8: To 0.476 g citric acid monohydrate and 2.753 g Na2HPO4×2H2O add 100 ml deionized water
With a suitable liquid handling device (Multipette® or a liquid handler) 390 uL of each buffer solution and 10 uL of compound is added to each well of a 96 deep well plate. The plates are covered firmly and shaken for 24 h on an over head shaker (at 54 RPM) at room temperature. The DMSO content in the final buffer is 2.5% v/v.
After 24 h the plates are centrifuged to remove droplets on the lid before opening (for ˜5 min at 2500 RPM).
The filtration is done under vacuum with Millipore 96 well filter plate. Filtrate is collected in a deep well plate and transferred to a suitable plate for UPLC analysis.
The reference plate is prepared by adding 10 uL of compound to 390 uL of 50:50 acetonitrile/water in a 96 deep well plate and transferred to a suitable plate for UPLC analysis. Wells are checked visually for precipitation, any presence noted under comments in reported results.
The samples are measured with UPLC-UV using the chromatographic method described below.
Waters Empower®2 software is used for generating Sample Sets (according to the plate layout), Sample Set Methods and Instrument Methods.
One Sample Set comprises the methods for three 96 well plates (one reference plate and two sample plates, and includes one Sample Set Method and one Instrument Method).
3. Data Processing and Analysis
The UV chromatograms collected at 254 nm are integrated and processed.
It is assumed that the compound is completely dissolved in the reference solution (50:50 acetonitrile/water)

[2] = human liver microsome (HLM) metabolic stability assay; type: in vitro ADME; settings: human liver microsomes; % hepatic blood flow calculated from t1/2
Description: The 5 time point, high-throughput human liver microsome (HLM) metabolic stability assay is designed to determine in vitro compound metabolism. Compounds are incubated with HLMs at a concentration of 1 uM, at 37° C., for a total of 60 min. The percent of compound remaining at 5, 15, 30, and 60 min is used to calculate the t½ (min), CLint (mL/min/kg), CLh (mL/min/kg), and % Qh. The assay is based on a 96-well format and can accommodate up to 92 compounds per plate (n=1).
Using the 96-well multi-channel head, the Biomek FX, equipped with a Peltier heating block/shaker, is programmed to accomplish the following steps: • 1. Pipette 175 uL of 1.15 mg/mL microsomes into each of the 96 conical inserts (Analytical Sales and Products, catalog number 96PL05) that fit into the plate of the Peltier heating block/shaker (the incubation plate) • 2. Add 5 uL of compounds from the assay plate to the microsomes and shake the mixture at 600 rpm at 42.1° C. for 10 min (a setting of 42.1° C. on the Peltier is required for the samples to incubate at 37° C.) • 3. After 10 min, prompt the user to add the NADPH plate to the deck and add 20 uL from the NADPH plate to the incubation plate to start the reaction • 4. Add 215 uL of 100%, cold acetonitrile containing an internal standard(s) to a 0 minute, 5 minute, 15 minute, 30 minute, and 60 minute “quench” plate • 5. At 0 min, 5 min, 15 min, 30 min, and 60 min into the incubation, aspirate 12 uL from the incubation mixture and add it to the quench solution to stop the reaction • 6. Add 185 uL HPLC grade water to each well of the 0, 5, 15, 30 and 60 minute quench plates to dilute compounds to the appropriate concentration for the mass spectrometer
After all time points are collected, the quench plates are sealed with 96-well pierceable plate mats or heat sealing foil and centrifuged at 3000 rpm for 15 min to pellet the microsomes.
The plates are analyzed using LC/MS/MS with electron spray ionization (ESI) and the previously determined MRM transitions. The LC method includes the following parameters:
Using an Excel template in Activitybase, the peak areas corresponding to 5, 15, 30 and 60 min are compared to the peak area at 0 min to calculate the percent of remaining compound using the following equation: Percent compound remaining=(AUC at Time t min/AUC at Time 0 min)×100 where t=0, 5, 15, 30 or 60 min.
Time (min) is plotted against the natural logarithm (Ln) of the percent compound remaining to determine the slope. The slope is used to calculate t½ (min) using the equation, t½=0.693/slope.
Preferred compounds have % Qh values of less than 24.

Compound	solubility at 24 h ([1]; pH 2.2, aqueous buffer) [µg/mL]	solubility at 24 h ([1]; pH 4.5, aqueous buffer) [µg/mL]	solubility at 24 h ([1]; pH 6.8, aqueous buffer) [µg/mL]	HLM (% Qh) [2] [% Qh]
CCOc1c(C(=O)O)cnn1-c1cccc(-c2cccc(C)c2OCc2cc(C)c3c(c2)CN(C2CCOCC2)C3)n1 [Compound 118]	110 (≈ 193 µM)	84 (≈ 148 µM)	92 (≈ 162 µM)	<24
CCOc1c(C(=O)O)cnn1-c1cccc(-c2cccc(C)c2OCc2ccc3c(c2C)CN(C2CCOCC2)C3)n1 [Compound 119]	110 (≈ 193 µM)	89 (≈ 157 µM)	97 (≈ 171 µM)	<24
COc1c(C(=O)O)cnn1-c1cccc(-c2cccc(C)c2OCc2cc(C)c3c(c2C)CCN(C2CCOCC2)C3)n1 [Compound 120]	110 (≈ 189 µM)	94 (≈ 161 µM)	97 (≈ 166 µM)	<24
COc1c(C(=O)O)cnn1-c1cccc(-c2cc(C)ccc2OCc2ccc3c(c2C)CCN(C2CCOCC2)C3)n1 [Compound 124]	100 (≈ 176 µM)	8.6 (≈ 15.1 µM)	44 (≈ 77.4 µM)	<24
CCOc1c(C(=O)O)cnn1-c1cccc(-c2cccc(C)c2OCc2ccc3c(c2C)CCN([C@H]2CCOC2)C3)n1 [Compound 125]	110 (≈ 193 µM)	76 (≈ 134 µM)	78 (≈ 137 µM)	<24
CCOc1c(C(=O)O)cnn1-c1cccc(-c2cccc(C)c2OCc2ccc3c(c2C)CCN([C@@H]2CCOC2)C3)n1 [Compound 126]	96 (≈ 169 µM)	74 (≈ 130 µM)	78 (≈ 137 µM)	<24
CCOc1c(C(=O)O)cnn1-c1cccc(-c2cccc(C)c2OCc2ccc3c(c2C)CCN([C@@H]2CCCOC2)C3)n1 [Compound 128]	93 (≈ 160 µM)	77 (≈ 132 µM)	78 (≈ 134 µM)	<24
CCOc1c(C(=O)O)cnn1-c1cccc(-c2cccc(C)c2OCc2ccc3c(c2)OCCN(C2CCOCC2)C3)n1 [Compound 131]	130 (≈ 222 µM)	97 (≈ 166 µM)	110 (≈ 188 µM)	28
CC[C@H](C)Oc1c(C(=O)O)cnn1-c1cccc(-c2cccc(C)c2OCc2ccc3c(c2C)CCN(C2CCCOC2)C3)n1 (some centres unmarked) [Compound 135]	110 (≈ 180 µM)	97 (≈ 159 µM)	100 (≈ 164 µM)	29
CC[C@H](C)Oc1c(C(=O)O)cnn1-c1cccc(-c2cccc(C)c2OCc2ccc3c(c2C)CCN(C2CCOC2)C3)n1 (some centres unmarked) [Compound 137]	110 (≈ 184 µM)	98 (≈ 164 µM)	110 (≈ 184 µM)	<24
COc1c(C(=O)O)cnn1-c1cccc(-c2cccc(C)c2OCc2ccc3c(c2C)CCN([C@H]2CCCOC2)C3)n1 [Compound 141]	130 (≈ 229 µM)	110 (≈ 193 µM)	110 (≈ 193 µM)	<24
COc1c(C(=O)O)cnn1-c1cccc(-c2cccc(C)c2OCc2ccc3c(c2C)CCN(C[C@H]2COCCO2)C3)n1 [Compound 142]	120 (≈ 205 µM)	87 (≈ 149 µM)	93 (≈ 159 µM)	<24
CC(C)Oc1c(C(=O)O)cnn1-c1cccc(-c2ccccc2OCc2ccc3c(c2)CCN(C2CCOCC2)C3)n1 [Compound 144]	110 (≈ 193 µM)	89 (≈ 157 µM)	93 (≈ 164 µM)	<24
CCOc1c(C(=O)O)cnn1-c1cccc(-c2cccc(C)c2OCc2ccc3c(c2C)CCN(CC2CCCOC2)C3)n1 (centres unmarked) [Compound 146]	100 (≈ 168 µM)	88 (≈ 147 µM)	79 (≈ 132 µM)	<24

Continued, values first:

solubility at 24 h ([1]; pH 2.2, aqueous buffer) [µg/mL]	solubility at 24 h ([1]; pH 4.5, aqueous buffer) [µg/mL]	solubility at 24 h ([1]; pH 6.8, aqueous buffer) [µg/mL]	HLM (% Qh) [2] [% Qh]	Compound
102 (≈ 171 µM)	82 (≈ 137 µM)	85 (≈ 142 µM)	25	Cc1cccc(-c2cccc(-n3ncc(C(=O)O)c3OC(C)C)n2)c1OCc1ccc2c(c1C)CCN([C@H]1CCCOC1)C2 [Compound 117]
110 (≈ 193 µM)	90 (≈ 158 µM)	93 (≈ 164 µM)	<24	COc1c(C(=O)O)cnn1-c1cccc(-c2cccc(C)c2OCc2cc3c(cc2C)CN(C2CCOCC2)CC3)n1 [Compound 121]
95 (≈ 163 µM)	79 (≈ 136 µM)	79 (≈ 136 µM)	<24	CCOc1c(C(=O)O)cnn1-c1cccc(-c2cccc(C)c2OCc2ccc3c(c2C)CCN([C@H]2CCCOC2)C3)n1 [Compound 129]
130 (≈ 228 µM)	100 (≈ 175 µM)	110 (≈ 193 µM)	25	COc1c(C(=O)O)cnn1-c1cccc(-c2cccc(C)c2OCc2ccc3c(c2)OCCN(C2CCOCC2)C3)n1 [Compound 130]
120 (≈ 201 µM)	99 (≈ 166 µM)	100 (≈ 168 µM)	<24	CCCOc1c(C(=O)O)cnn1-c1cccc(-c2cccc(C)c2OCc2ccc3c(c2C)CCN(C2CCOCC2)C3)n1 [Compound 133]
110 (≈ 180 µM)	94 (≈ 154 µM)	100 (≈ 164 µM)	32	Cc1cccc(-c2cccc(-n3ncc(C(=O)O)c3OCC(C)C)n2)c1OCc1ccc2c(c1C)CCN(C1CCOCC1)C2 [Compound 134]
120 (≈ 196 µM)	100 (≈ 164 µM)	110 (≈ 180 µM)	<24	CC[C@H](C)Oc1c(C(=O)O)cnn1-c1cccc(-c2cccc(C)c2OCc2ccc3c(c2C)CCN(C2CCOCC2)C3)n1 [Compound 136]
130 (≈ 222 µM)	110 (≈ 188 µM)	120 (≈ 205 µM)	<24	COc1c(C(=O)O)cnn1-c1cccc(-c2cccc(C)c2OCc2ccc3c(c2C)CCN(C[C@@H]2COCCO2)C3)n1 [Compound 139]
140 (≈ 246 µM)	120 (≈ 211 µM)	120 (≈ 211 µM)	<24	COc1c(C(=O)O)cnn1-c1cccc(-c2cccc(C)c2OCc2ccc3c(c2C)CCN([C@@H]2CCCOC2)C3)n1 [Compound 140]
160 (≈ 288 µM)	150 (≈ 270 µM)	160 (≈ 288 µM)	<24	COc1c(C(=O)O)cnn1-c1cccc(-c2cccc(C)c2OCc2cc3c(cc2C)CN(C2CCOCC2)C3)n1 [Compound 143]
110 (≈ 193 µM)	92 (≈ 162 µM)	94 (≈ 165 µM)	<24	COc1c(C(=O)O)cnn1-c1cccc(-c2cccc(C)c2OCc2cc(C)c3c(c2C)CN(C2CCOCC2)C3)n1 [Compound 145]
1.2 (≈ 1.96 µM)	3.1 (≈ 5.08 µM)	75 (≈ 123 µM)	<24	CCOc1c(C(=O)O)cnn1-c1cccc(-c2cccc(C)c2OCc2ccc3c(c2C)CCN(C(=O)C2CCOCC2)C3)n1 [Compound 147, 5-Ethoxy-1-(6-{3-methyl-2-[5-methyl-2-(tetrahydro-pyran-4-carbonyl)-1,2,3,4-tetrahydro-isoquinolin-6-ylmethoxy]-phenyl}-pyridin-2-yl)-1H-pyrazole-4-carboxylic acid]

From patent US8906904B2, “Alkoxy pyrazoles as soluble guanylate cyclase activators” (Boehringer Ingelheim International GmbH, priority 2012, dated 2014)
